Laboratory results from ChEMBL document CHEMBL3817757, “Unprecedented Binding Mode of Hydroxamate-Based Inhibitors of Glutamate Carboxypeptidase II: Structural Characterization and Biological Activity” (J Med Chem, 2016).
The source made the active and inactive calls. The rule behind the calls is not given here.

Experiments:
[1] = molecular target: Glutamate carboxypeptidase 2 (Homo sapiens, UniProt Q04609); test: Inhibition of human recombinant GCP2 expressed in Schneider 2 cells preincubated for 15 mins using [3H]-NAAG/NAAG as substrate measured after 20 mins by liquid scintillation counting
[2] = Drug uptake in CD1 mouse sciatic nerve at 10 mg/kg, po administered as single dose measured after 0.25 to 2 hrs by LC/MS/MS analysis; assay type: ADME, organism-based; settings: in vivo
Rattus norvegicus [3] = test: Effect on absolute paw withdrawal latency to thermal stimulus in sham operated Sprague-Dawley rat at 10 mg/kg/day, po administered via oral gavage for 15 days measured over compound dosing; assay type: ADME, organism-based; settings: in vivo, 360 h
[4] = Tmax in CD1 mouse plasma at 10 mg/kg, po by LC/MS/MS analysis; assay type: ADME, organism-based
Plasma = test: Plasma concentration in CD1 mouse at 10 mg/kg, po administered as single dose measured after 0.25 to 2 hrs by LC/MS/MS analysis; assay type: ADME, organism-based; settings: in vivo
[5] = Ratio of CD1 mouse sciatic nerve AUC (0 to 2 hrs) to CD1 mouse plasma AUC (0 to 2 hrs); assay type: ADME, cell-free; settings: in vivo
Rattus norvegicus [6] = test: Analgesic activity in Sprague-Dawley rat chronic constrictive injury model of neuropathic pain assessed as increase in paw withdrawal latencies in response to thermal stimulus at 10 mg/kg/day, po administered via oral gavage for 15 days measured from day 4 of compound dosing; assay type: functional, organism-based

Sequence of Glutamate carboxypeptidase 2 (Q04609 whole entry): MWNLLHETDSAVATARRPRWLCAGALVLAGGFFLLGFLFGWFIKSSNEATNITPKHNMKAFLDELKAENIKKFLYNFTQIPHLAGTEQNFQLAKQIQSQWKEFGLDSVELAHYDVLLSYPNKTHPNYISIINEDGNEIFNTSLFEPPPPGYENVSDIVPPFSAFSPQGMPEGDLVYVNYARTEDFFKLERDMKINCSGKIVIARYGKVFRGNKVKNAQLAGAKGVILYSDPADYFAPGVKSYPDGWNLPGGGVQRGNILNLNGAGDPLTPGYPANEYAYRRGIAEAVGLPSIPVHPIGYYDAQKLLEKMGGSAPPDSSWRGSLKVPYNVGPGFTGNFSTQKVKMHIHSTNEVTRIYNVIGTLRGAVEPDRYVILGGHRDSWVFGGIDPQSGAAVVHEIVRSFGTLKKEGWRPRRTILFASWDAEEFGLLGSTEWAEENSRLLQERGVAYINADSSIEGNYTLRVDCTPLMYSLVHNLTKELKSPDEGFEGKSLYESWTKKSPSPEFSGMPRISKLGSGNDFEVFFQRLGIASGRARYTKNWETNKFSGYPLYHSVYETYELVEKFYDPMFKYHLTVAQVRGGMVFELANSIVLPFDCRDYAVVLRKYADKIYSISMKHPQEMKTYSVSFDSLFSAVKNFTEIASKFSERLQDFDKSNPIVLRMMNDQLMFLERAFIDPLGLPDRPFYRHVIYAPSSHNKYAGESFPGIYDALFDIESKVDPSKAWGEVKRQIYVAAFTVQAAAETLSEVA

Row | SMILES | IC50 [1] | Drug uptake [2] | Activity (Rattus norvegicus [3]) | Tmax [4] | concentration (Plasma) | Ratio AUC [5] | Activity (Rattus norvegicus [6])
1 | O=C(CC[C@H](Cc1ccc(C(=O)O)cc1)C(=O)O)NO | 0.044 µM | – | – | – | – | – | –
2 | O=C(CCC(Cc1ccc(C(=O)O)cc1)C(=O)O)NO (racemic) | 0.063 µM | – | – | – | – | – | –
3 | O=C(CC[C@@H](Cc1ccc(C(=O)O)cc1)C(=O)O)NO | 0.097 µM | Active | Non-toxic | 15 min | 121 nM | 43% | Active
